From patent publication US9096547B2, “Sodium salt of 6-fluoro-3-hydroxy-2-pyrazine carboxamide” (Toyama Chemical Co., Ltd., priority 2010, dated 2015) come the findings set out here.

Data set [1] in a line: Stability (1): appearance after standing at 60° C. for 1 month. As to conditions: stand still at 60° C. for 1 month. It is filed as physicochemical. The procedure: The preparations of Examples 1, 7, 9, 10, 11, 12, 25, 28 and 29 were allowed to stand still at 60° C. for 1 month and then their appearance was observed.
A short description of data set [2]: Stability (2): appearance after irradiation by a D65 lamp. It is filed as physicochemical. The following applies: irradiated (1,200,000 lx·hr) by a D65 lamp. From the text: The preparations of Examples 1, 10, 15, 16, 22 and Comparative Example 1 were irradiated (1,200,000 lx·hr) by a D65 lamp (FLR20S-D-EDL-D65/M) and then their appearance was observed.

As for `NC(=O)c1nc(F)cnc1O.[Na]` [Example 1, sodium salt of 6-fluoro-3-hydroxy-2-pyrazinecarboxamide], the appearance change entry in data set [1] and in data set [2] was “appearance change was not observed” each time.
